# Molecular target: T1, Ba/F3 cell EGFR Exon20 ins NPH (Homo sapiens, UniProt P00533, INS773NPH)
# T1 construct: expressed in transfected cells; host or cells: Ba/F3
# Assay: Ba/F3 cell proliferation suppression, EGFR Exon20 ins NPH
# Assay type: cell-based
# Details: GI50 class; Ba/F3 cell line with NPH inserted at Exon20 of EGFR; 72 hours
# Procedure: The following experiment was carried out to evaluate the suppression activity of the compounds according to the present invention against proliferation of Ba/F3 and lung cancer cells which express EGFR mutations.
# Of the cancer cell lines expressing the EGFR gene, A549 was cultured after adding 10% FBS (HyClone) to DMEM (Invitrogen), and RPMI-1640 (Invitrogen) with 10% FBS was used for the other cancer cells. For the Ba/F3 cells, RPMI-1640 with 10% FBS and 5 ng/ml IL-3 (R&D Systems) was used. The transduced Ba/F3 cells were cultured by adding 1 ug/ml puromycin (Invitrogen) to the same medium.
# 24 hours before treatment with the compounds, 3000 to 5000 cells were distributed into each well of a white clear bottom 96 well plate (Corning). The compounds were diluted in dimethylsulfoxide (dilution ratio 3:1; 12 concentrations total) and injected 0.5 ul each for a final concentration of 0.3 nM to 50 um. As for measurement of live cells, 72 hours after treatment with the compounds, a CellTiter-Glo luminescent cell-viability reagent (Promega) was used to store the cells at room temperature for 10 minutes, followed by measurement of luminescence using a reader (SynergyNeo, Biotek). Each test was repeated three times.
# The result was calculated as a cell growth ratio (%) compared to a control. The program GraphPad Prism version 5.0 was used to draw the graphs and calculate the GI50 values.
row,Structure (SMILES),Ba/F3 (NPH) Activity
1,"C=CC(=O)Nc1cc(Nc2cc(N3OCC[C@@H]3c3cccc(C)c3F)ncn2)c(OC)cc1N1CCC(N2CC[C@@H](N(C)C)C2)CC1 [compound 418, N-(2-(4-((R)-3-(dimethylamino)pyrolidine-1-yl)piperidine-1-yl)-5-((6-((R)-3-(2-fluoro-3-methylphenyl)isoxazolidine-2-yl)pyrimidine-4-yl)amino)-4-methoxyphenyl) acrylamide]",A (GI50 < 50 nM)
2,"C=CC(=O)Nc1cc(Nc2cc(N3OCC[C@@H]3c3ccc(Cl)c(F)c3)ncn2)c(OC)cc1N1CCC(N2CCC(N(C)C)CC2)CC1 [compound 803, N-(5-((6-((R)-3-(4-chloro-3-fluorophenyl)isoxazolidine-2-yl)pyrimidine-4-yl)amino)-2-(4-(dimethylamino)-[1,4'-bipiperidine]-1'-yl)-4-methoxyphenyl) acrylamide]",A (GI50 < 50 nM)
3,"C=CC(=O)Nc1cc(Nc2cc(N3OCC[C@@H]3Cc3cccc(Cl)c3F)ncn2)c(OC)cc1N(C)CCN(C)C [compound 1016, N-(5-((6-((S)-3-(3-chloro-2-fluorobenzyl)isoxazolidine-2-yl)pyrimidine-4-yl)amino)-2-((2-(dimethylamino)ethyl)(methyl)amino)-4-methoxyphenyl) acrylamide]",A (GI50 < 50 nM)
4,"C=CC(=O)Nc1cc(Nc2cc(N3OCC[C@@H]3c3ccc(Cl)c(Cl)c3F)ncn2)c(OC)cc1N1CC[C@@H](N2CCOCC2)C1 [Example 294, N-(5-((6-((R)-3-(3,4-dichloro-2-fluorophenyl)isoxazolidine-2-yl)pyrimidine-4-yl)amino)-4-methoxy-2-((R)-3-morpholinopyrolidine-1-yl)phenyl)acrylamide]",B (50 nM ≤ GI50 < 500 nM)
5,"C=CC(=O)Nc1cc(Nc2cc(N3OCC[C@@H]3Cc3ccccc3)ncn2)c(OC)cc1N1C[C@@H]2C[C@H]1CO2 [compound 962, N-(5-((6-((S)-3-benzylisoxazolidine-2-yl)pyrimidine-4-yl)amino)-2-((1S,4S)-2-oxa-5-azabicyclo [2.2.1]heptane-5-yl)-4-methoxyphenyl) acrylamide]",A (GI50 < 50 nM)
6,"C=CC(=O)Nc1cc(Nc2cc(N3OCC[C@@H]3c3ccc(F)cc3F)ncn2)c(OC)cc1N1CCC(N2CC[C@@H](N(C)C)C2)CC1 [compound 429, N-(5-((6-((R)-3-(2,4-difluorophenyl)isoxazolidine-2-yl)pyrimidine-4-yl)amino)-2-(4-((R)-3-(dimethylamino)pyrolidine-1-yl)piperidine-1-yl)-4-methoxyphenyl) acrylamide]",A (GI50 < 50 nM)
7,"C=CC(=O)Nc1cc(Nc2cc(N3OCC[C@@H]3c3cc(F)ccc3F)ncn2)c(OC)cc1N1CCOCC1 [compound 825, N-(5-((6-((R)-3-(2,5-difluorophenyl)isoxazolidine-2-yl)pyrimidine-4-yl)amino)-4-methoxy-2-morpholinophenyl) acrylamide]",A (GI50 < 50 nM)
8,"C=CC(=O)Nc1cc(Nc2cc(N3OCC[C@@H]3c3ccc(Cl)cc3F)ncn2)c(OC)cc1N1CCC(N2CCN(C(C)C)CC2)CC1 [compound 408, N-(5-((6-((R)-3-(4-chloro-2-fluorophenyl)isoxazolidine-2-yl)pyrimidine-4-yl)amino)-2-(4-(4-isopropylpiperazine-1-yl)piperidine-1-yl)-4-methoxyphenyl) acrylamide]",A (GI50 < 50 nM)
9,"C=CC(=O)Nc1cc(Nc2cc(N3OCC[C@@H]3c3ccc(F)cc3F)ncn2)c(OC)cc1N1CCC(N2C[C@@H]3C[C@H]2CN3CC)CC1 [compound 382, N-(5-((6-((R)-3-(2,4-difluorophenyl)isoxazolidine-2-yl)pyrimidine-4-yl)amino)-2-(4-((1S,4S)-5-ethyl-2,5-diazabicyclo [2.2.1]heptane-2-yl)piperidine-1-yl)-4-methoxyphenyl) acrylamide]",A (GI50 < 50 nM)
10,"C=CC(=O)Nc1cc(Nc2cc(N3OCC[C@@H]3c3ccc(Cl)cc3F)ncn2)c(OC)cc1N1CCC(N(C(=O)C=C)C2CCN(C(C)C)CC2)CC1 [compound 402, N-(1-(2-acrylamido-4-((6-((R)-3-(4-chloro-2-fluorophenyl)isoxazolidine-2-yl)pyrimidine-4-yl)amino)-5-methoxyphenyl)piperidine-4-yl)-N-(1-isopropylpiperidine-4-yl)acrylamide]",A (GI50 < 50 nM)
11,"COc1cc(N2CCC(N3CCN(C4CC4)CC3)CC2)c(NC(=O)/C=C/CN(C)C)cc1Nc1cc(N2OCC[C@@H]2c2cc(F)cc(F)c2)ncn1 [Example 117, N-(2-(4-(4-cyclopropylpiperazine-1-yl)piperidine-1-yl)-5-((6-((R)-3-(3,5-difluorophenyl)isoxazolidine-2-yl)pyrimidine-4-yl)amino)-4-methoxyphenyl)-(E)-4-(dimethylamino) but-2-enamide]",A (GI50 < 50 nM)
12,"C=CC(=O)Nc1cc(Nc2cc(N3OCC[C@@H]3c3cccc4ccccc34)ncn2)c(OC)cc1N1CCN(CC)CC1 [compound 444, N-(2-(4-ethylpiperazine-1-yl)-4-methoxy-5-((6-((R)-3-(naphthalene-1-yl)isoxazolidine-2-yl)pyrimidine-4-yl)amino)phenyl)acrylamide]",B (50 nM ≤ GI50 < 500 nM)
13,"C=CC(=O)Nc1cc(Nc2cc(N3OCC[C@@H]3c3cccc(C(F)(F)F)c3)ncn2)c(OC)cc1N(C)CCN(C)C [compound 449, N-(2-((2-(dimethylamino)ethyl)(methyl)amino)-4-methoxy-5-((6-((R)-3-(3-(trifluoromethyl)phenyl)isoxazolidine-2-yl)pyrimidine-4-yl)amino)phenyl)acrylamide]",A (GI50 < 50 nM)

# Other lines, results leading:
row,Ba/F3 (NPH) Activity,Structure (SMILES)
1,A (GI50 < 50 nM),"C=CC(=O)Nc1cc(Nc2cc(N3OCC[C@@H]3c3ccc(F)c(Cl)c3)ncn2)c(OC)cc1N1CCC(N2CCN(C3CC3)[C@@H](C)C2)CC1 [Example 177, N-(5-((6-((R)-3-(3-chloro-4-fluorophenyl)isoxazolidine-2-yl)pyrimidine-4-yl)amino)-2-(4-((S)-4-cyclopropyl-3-methylpiperazine-1-yl)piperidine-1-yl)-4-methoxyphenyl) acrylamide]"
2,B (50 nM ≤ GI50 < 500 nM),"C=CC(=O)Nc1cc(Nc2cc(N3OCC[C@@H]3c3ccc4ccccc4c3)ncn2)c(OC)cc1N1CCN(C)[C@@H](C)C1 [compound 662, N-(2-((S)-3,4-dimethylpiperazine-1-yl)-4-methoxy-5-((6-((R)-3-(naphthalene-2-yl)isoxazolidine-2-yl)pyrimidine-4-yl)amino)phenyl)acrylamide]"
3,A (GI50 < 50 nM),"C=CC(=O)Nc1cc(Nc2cc(N3OCC[C@@H]3c3cccc(Cl)c3C)ncn2)c(OC)cc1N1CCC(N2C[C@H]3C[C@@H]2CO3)CC1 [compound 532, N-(2-(4-((1R,4R)-2-oxa-5-azabicyclo[2.2.1]heptane-5-yl)piperidine-1-yl)-5-((6-((R)-3-(3-chloro-2-methylphenyl)isoxazolidine-2-yl)pyrimidine-4-yl)amino)-4-methoxyphenyl) acrylamide]"
4,B (50 nM ≤ GI50 < 500 nM),"C=CC(=O)Nc1cc(Nc2cc(N3OCC[C@@H]3c3ccc4ccccc4c3)ncn2)c(OC)cc1N1CCC(N2C[C@H]3C[C@@H]2CO3)CC1 [compound 557, N-(2-(4-((1R,4R)-2-oxa-5-azabicyclo[2.2.1]heptane-5-yl)piperidine-1-yl)-4-methoxy-5-((6-((R)-3-(naphthalene-2-yl)isoxazolidine-2-yl)pyrimidine-4-yl)amino)phenyl)acrylamide]"
5,B (50 nM ≤ GI50 < 500 nM),"C=CC(=O)Nc1cc(Nc2cc(N3OCC[C@@H]3c3ccc(C)nc3)ncn2)c(OC)cc1N1CCN(C)CC1 [Example 44, N-(4-methoxy-2-(4-methylpiperazine-1-yl)-5-((6-((R)-3-(6-methylpyridine-3-yl)isoxazolidine-2-yl)pyrimidine-4-yl)amino)phenyl) acrylamide]"
6,A (GI50 < 50 nM),"C=CC(=O)Nc1cc(Nc2cc(N3OCC[C@@H]3c3cccc(C#N)c3)ncn2)c(OC)cc1N1C[C@@H]2CCN(C)[C@@H]2C1 [compound 332, N-(5-((6-((R)-3-(3-cyanophenyl)isoxazolidine-2-yl)pyrimidine-4-yl)amino)-4-methoxy-2-((3aS,6aS)-1-methylhexahydropyrrolo [3,4-b]pyrrole-5(1H)-yl)phenyl)acrylamide]"
7,B (50 nM ≤ GI50 < 500 nM),"C=CC(=O)Nc1cc(Nc2cc(N3OCC[C@@H]3c3cccc(C#N)c3)ncn2)c(OC)cc1N1CCC(O)CC1 [compound 390, N-(5-((6-((R)-3-(3-cyanophenyl)isoxazolidine-2-yl)pyrimidine-4-yl)amino)-2-(4-hydroxypiperidine-1-yl)-4-methoxyphenyl) acrylamide]"
8,A (GI50 < 50 nM),"C=CC(=O)Nc1cc(Nc2cc(N3OCC[C@@H]3c3cccc(F)c3Cl)ncn2)c(OC)cc1N1CCC(N(C)C)CC1 [compound 553, N-(5-((6-((R)-3-(2-chloro-3-fluorophenyl)isoxazolidine-2-yl)pyrimidine-4-yl)amino)-2-(4-(dimethylamino)piperidine-1-yl)-4-methoxyphenyl) acrylamide]"
